From paper PMC10525732, “Assessing the Activity under Different Physico-Chemical Conditions, Digestibility, and Innocuity of a GAPDH-Related Fish Antimicrobial Peptide and Analogs Thereof” (Antibiotics, 2023)
Converted amounts (≈) assume the structure as drawn. Like-named read-outs stand apart in the source and are kept apart here.

System: E. coli ATCC 11229
Test: Minimal inhibitory concentration (MIC), broth microdilution
Format: cell-based
Settings: Escherichia coli
Procedure: It was cultivated in tryptic soy broth (TSB) (BD, Sparks, NV, USA) at 37 °C and subcultured three times before being used for antimicrobial activity assays.
MICs for Escherichia coli ATCC 11229 were determined using a broth microdilution protocol. Briefly, twofold dilutions of peptide solutions ([…]) were made in Mueller Hinton Broth (MHB) (Oxoid, Basingstoke, UK) in 96-well polypropylene clear round bottom microplates (Corning Inc., Corning, NY, USA). Bacteria were cultured for 18 h and then diluted in MHB broth and inoculated in the microplates so that the final inoculum in the wells was 5 × 10^5 CFU/mL. The final volumes in the wells were 200 μL. Plates were then incubated for 16 h at 37 °C. […] Chloramphenicol (Sigma-Aldrich, St. Louis, MI, USA) was used as a positive control to ensure the validity of the tests. […] MBCs were defined as the lowest peptide concentrations that inhibited 99.9% or more of bacterial growth based on the initial 5 × 10^5 CFU/mL inocula in the wells [66]. Three independent repetitions were completed, and two technical replicates were done for each independent repetition.
The impact of different salts on the antimicrobial activity of SJGAP and analogs thereof was tested by determining the effect on their MIC and MBC values. The same procedure as described above was used, but different concentrations of salts were added to the MHB medium in the microplates. To test the impact of monovalent cations, NaCl (Fisher Scientific, Fair Lawn, NJ, USA) and KCl (EMD, Gibbstown, NJ, USA) were tested at final concentrations of 50, 150, and 300 mM in the wells.
The stability of the peptides at elevated temperatures was also tested. Mixtures of the peptides solubilized in MHB medium were heated to 100 °C for 15 min in a water bath. After cooling in an ice water bath, the solutions were loaded into the microplates and inoculated with the tested bacteria to conduct the MIC and MBC assays. For all tested conditions, three independent repetitions and two technical replicates for each of these repetitions were completed.

O=C(N[C@H](CO)[C@H](O)c1ccc([N+](=O)[O-])cc1)C(Cl)Cl [Chloramphenicol]
MIC (ATCC11229, 16 h, MHB + 1 mM CaCl2, 16 h, 37 °C, 5 × 10^5 CFU/mL, three independent repetitions, n.a. = no activity, read-out: MIC): 8 µg/mL
MIC (ATCC11229, MHB + 1 mM MgCl2, n.a. = no activity, read-out: MIC): 8 µg/mL
MIC (ATCC11229, MHB + 5 mM CaCl2, n.a. = no activity, read-out: MIC): 8 µg/mL
MIC (ATCC11229, MHB + 5 mM MgCl2, n.a. = no activity, read-out: MIC): 8 µg/mL
MIC (ATCC11229, MHB + 10 mM CaCl2, n.a. = no activity, read-out: MIC): 8 µg/mL
MIC (ATCC11229, MHB + 10 mM MgCl2, n.a. = no activity, read-out: MIC): 8 µg/mL
MIC (ATCC11229, MHB + 50 mM KCl, n.a. = no activity, * very weak bacterial growth detected, read-out: MIC): 8 µg/mL
MIC (ATCC11229, MHB + 50 mM NaCl, n.a. = no activity, * very weak bacterial growth detected, read-out: MIC): 8 µg/mL
MIC (ATCC11229, MHB + 150 mM KCl, n.a. = no activity, * very weak bacterial growth detected, read-out: MIC): 4 µg/mL
MIC (ATCC11229, MHB + 150 mM NaCl, n.a. = no activity, * very weak bacterial growth detected, read-out: MIC): 4 µg/mL
MIC (ATCC11229, MHB + 300 mM KCl, n.a. = no activity, read-out: MIC): 2 µg/mL
MIC (ATCC11229, MHB + 300 mM NaCl, n.a. = no activity, read-out: MIC): 4 µg/mL
MIC (ATCC11229, […], peptide in MHB heated 100 °C, 15 min in water bath, cooled, then assayed, n.a. = no activity, read-out: MIC after heating treatment): 8 µg/mL (≈ 24.8 µM)
MIC (ATCC11229, pH 5, MHB adjusted to pH 5 with 50 mM citrate buffer, * very weak bacterial growth detected, read-out: MIC): 0.5 µg/mL (≈ 1.55 µM)
MIC (ATCC11229, pH 6, MHB adjusted to pH 6 with 50 mM citrate buffer, * very weak bacterial growth detected, read-out: MIC): 2 µg/mL (≈ 6.19 µM)
MIC (ATCC11229, pH 7, MHB adjusted to pH 7 with 50 mM phosphate buffer, n.a. = no activity, read-out: MIC): 4 µg/mL (≈ 12.4 µM)
MIC (ATCC11229, pH 8, MHB adjusted to pH 8 with 50 mM phosphate buffer, n.a. = no activity, read-out: MIC): 4 µg/mL (≈ 12.4 µM)
MIC (ATCC11229, unmodified MHB (Ctrl −), n.a. = no activity, read-out: MIC): 8 µg/mL (≈ 24.8 µM)
